Numbers after ± are expanded uncertainties.
Test: molar heat capacity at constant pressure; xn = mol fraction of the nth substance listed
Conditions: 101 kPa, Liquid, Small sample (50 mg) DSC

NCCCN1CCOCC1 [N-(3-aminopropyl)morpholine] + O
molar heat capacity at constant pressure [J/K/mol]
Conditions | x1 = 0.0999 | x1 = 0.2 | x1 = 0.2921 | x1 = 0.3916 | x1 = 0.4896 | x1 = 0.6011 | x1 = 0.6947 | x1 = 0.7952 | x1 = 0.8939 | x1 = 1
298.15 K | 108.4 ± 2.5 | 136.2 ± 2.8 | 160.1 ± 3 | 183.1 ± 3.3 | 203.5 ± 3.5 | 224.3 ± 3.8 | 242.5 ± 4 | 261.6 ± 4.2 | 278.9 ± 4.4 | 296.2 ± 4.6
303.15 K | 109.3 ± 2.5 | 137.2 ± 2.8 | 161.5 ± 3 | 184.9 ± 3.3 | 205.1 ± 3.5 | 226.3 ± 3.8 | 244.5 ± 4 | 263.6 ± 4.2 | 281 ± 4.4 | 298.2 ± 4.7
308.15 K | 110.3 ± 2.5 | 138.2 ± 2.8 | 162.6 ± 3 | 186.4 ± 3.3 | 206.8 ± 3.5 | 227.8 ± 3.8 | 246.1 ± 4 | 265.1 ± 4.2 | 282.5 ± 4.5 | 299.6 ± 4.7
313.15 K | 111.3 ± 2.5 | 139.5 ± 2.8 | 164 ± 3.1 | 188.1 ± 3.3 | 208.5 ± 3.6 | 229.5 ± 3.8 | 247.7 ± 4 | 266.7 ± 4.3 | 284 ± 4.5 | 301.2 ± 4.7
318.15 K | 112.3 ± 2.6 | 140.9 ± 2.8 | 165.6 ± 3.1 | 189.9 ± 3.3 | 210.3 ± 3.6 | 231.2 ± 3.8 | 249.4 ± 4.1 | 268.4 ± 4.3 | 285.8 ± 4.5 | 302.8 ± 4.7
323.15 K | 113.1 ± 2.6 | 142.3 ± 2.8 | 167.2 ± 3.1 | 191.3 ± 3.4 | 211.7 ± 3.6 | 232.9 ± 3.9 | 251.1 ± 4.1 | 270.1 ± 4.3 | 287.5 ± 4.5 | 304.5 ± 4.7
328.15 K | 114 ± 2.6 | 143.7 ± 2.9 | 168.6 ± 3.1 | 192.9 ± 3.4 | 213.2 ± 3.6 | 234.4 ± 3.9 | 252.6 ± 4.1 | 271.6 ± 4.3 | 289.1 ± 4.6 | 306.1 ± 4.8
333.15 K | 114.9 ± 2.6 | 145.3 ± 2.9 | 170.3 ± 3.1 | 194.5 ± 3.4 | 214.8 ± 3.6 | 236 ± 3.9 | 254.3 ± 4.1 | 273.4 ± 4.4 | 290.9 ± 4.6 | 307.9 ± 4.8
338.15 K | 115.9 ± 2.6 | 146.8 ± 2.9 | 171.9 ± 3.1 | 196.2 ± 3.4 | 216.5 ± 3.7 | 237.7 ± 3.9 | 256 ± 4.1 | 275 ± 4.4 | 292.5 ± 4.6 | 309.6 ± 4.8
343.15 K | 116.8 ± 2.6 | 148.2 ± 2.9 | 173.8 ± 3.2 | 197.6 ± 3.4 | 218.1 ± 3.7 | 239.5 ± 3.9 | 257.6 ± 4.2 | 276.5 ± 4.4 | 294.2 ± 4.6 | 311.3 ± 4.8
348.15 K | 117.8 ± 2.6 | 149.7 ± 2.9 | 175.5 ± 3.2 | 199.3 ± 3.5 | 219.7 ± 3.7 | 240.9 ± 4 | 259.1 ± 4.2 | 277.9 ± 4.4 | 295.6 ± 4.6 | 312.7 ± 4.9
353.15 K | 118.9 ± 2.6 | 151.1 ± 2.9 | 177.2 ± 3.2 | 201.6 ± 3.5 | 221.1 ± 3.7 | 242.1 ± 4 | 260.2 ± 4.2 | 278.7 ± 4.4 | 296.3 ± 4.6 | 313.4 ± 4.9

CN1CCNCC1 [N-methylpiperazine] + O
molar heat capacity at constant pressure [J/K/mol]
Conditions | x1 = 0.099 | x1 = 0.1998 | x1 = 0.2995 | x1 = 0.4009 | x1 = 0.4983 | x1 = 0.6007 | x1 = 0.6994 | x1 = 0.7992 | x1 = 0.8992 | x1 = 1
298.15 K | 99.4 ± 2.4 | 116 ± 2.6 | 128.8 ± 2.7 | 141.4 ± 2.8 | 153.8 ± 3 | 166.6 ± 3.1 | 179 ± 3.2 | 191.4 ± 3.4 | 203.6 ± 3.5 | 213.9 ± 3.6
303.15 K | 100.6 ± 2.5 | 117.3 ± 2.6 | 130.4 ± 2.7 | 143.3 ± 2.8 | 155.6 ± 3 | 168.2 ± 3.1 | 180.5 ± 3.2 | 192.7 ± 3.4 | 204.7 ± 3.5 | 214.4 ± 3.6
308.15 K | 101.6 ± 2.5 | 118.6 ± 2.6 | 131.9 ± 2.7 | 144.8 ± 2.9 | 157.1 ± 3 | 169.7 ± 3.1 | 182 ± 3.3 | 194.3 ± 3.4 | 205.8 ± 3.5 | 215 ± 3.6
313.15 K | 102.7 ± 2.5 | 119.9 ± 2.6 | 133.4 ± 2.7 | 146.4 ± 2.9 | 158.6 ± 3 | 171.3 ± 3.1 | 183.4 ± 3.3 | 195.4 ± 3.4 | 206.8 ± 3.5 | 215.7 ± 3.6
318.15 K | 103.7 ± 2.5 | 120.8 ± 2.6 | 134.6 ± 2.8 | 147.7 ± 2.9 | 159.8 ± 3 | 172.7 ± 3.2 | 184.7 ± 3.3 | 196.7 ± 3.4 | 207.8 ± 3.6 | 216.4 ± 3.7
323.15 K | 104.6 ± 2.5 | 122.1 ± 2.6 | 136.2 ± 2.8 | 149.3 ± 2.9 | 161.4 ± 3 | 174 ± 3.2 | 185.7 ± 3.3 | 197.5 ± 3.4 | 208.5 ± 3.6 | 216.9 ± 3.7
328.15 K | 105.6 ± 2.5 | 123.5 ± 2.7 | 137.8 ± 2.8 | 151.1 ± 2.9 | 163 ± 3.1 | 175.3 ± 3.2 | 186.9 ± 3.3 | 198.5 ± 3.4 | 209.2 ± 3.6 | 217.3 ± 3.7
333.15 K | 106.1 ± 2.5 | 124.8 ± 2.7 | 139.4 ± 2.8 | 153.3 ± 3 | 165.5 ± 3.1 | 177.3 ± 3.2 | 188.2 ± 3.3 | 198.9 ± 3.5 | 209.3 ± 3.6 | 217.2 ± 3.7
338.15 K | 106.6 ± 2.5 | 126.1 ± 2.7 | 140.9 ± 2.8 | 154.4 ± 3 | 166.8 ± 3.1 | 178.4 ± 3.2 | 189 ± 3.3 | 198.5 ± 3.4 | 208.2 ± 3.6 | 215.5 ± 3.6
343.15 K | 107.3 ± 2.5 | 127.3 ± 2.7 | 142.4 ± 2.8 | 156 ± 3 | 168.2 ± 3.1 | 179.8 ± 3.2 | 190.6 ± 3.4 | 200.1 ± 3.5 | 209.2 ± 3.6 | 216.2 ± 3.7
348.15 K | 108.2 ± 2.5 | 128.5 ± 2.7 | 143.8 ± 2.9 | 157.6 ± 3 | 170 ± 3.1 | 181.6 ± 3.3 | 192.4 ± 3.4 | 202.3 ± 3.5 | 211.4 ± 3.6 | 217.6 ± 3.7
353.15 K | 109 ± 2.5 | 129.7 ± 2.7 | 145.2 ± 2.9 | 159.2 ± 3 | 171.5 ± 3.1 | 183 ± 3.3 | 193.8 ± 3.4 | 203.7 ± 3.5 | 212.7 ± 3.6 | 218 ± 3.7

Reference: the NIST ThermoML archive (doi:10.1021/je400178k)
